The record followed here is PMC8658998, “Identification of Novel Antistaphylococcal Hit Compounds Targeting Sortase A” (Molecules, 2021).

Like-named read-outs stand apart in the source and are kept apart here.

The assay deals with T1, sortase A (Staphylococcus aureus, UniProt Q2FV99).
T1 construct: gene srtA
Description: SensoLyte […] Sortase A FRET substrate cleavage assay (5-FAM/QXL). The assay is classed as biochemical.

T1 sequence (Q2FV99 whole entry): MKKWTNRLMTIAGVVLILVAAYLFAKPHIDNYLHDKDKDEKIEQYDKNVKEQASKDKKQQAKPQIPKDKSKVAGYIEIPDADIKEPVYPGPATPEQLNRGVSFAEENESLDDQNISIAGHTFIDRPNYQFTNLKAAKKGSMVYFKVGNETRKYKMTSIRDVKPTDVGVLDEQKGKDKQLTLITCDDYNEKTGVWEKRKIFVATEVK

Consider `CCN(CC)CCCNc1cc([N+](=O)[O-])ccc1-c1ncc2ccccc2n1` [compound 1, N,N-diethyl-N′-(5-nitro-2-(quinazolin-2-yl)phenyl)propane-1,3-diamine], for which, for the setting “read-out: IC50”, the IC50 was 160 µM.
As to `c1ccc2c(Nc3ccc4[nH]cnc4c3)c3ccccc3nc2c1` [compound 2, acridin-9-yl-(1H-benzoimidazol-5-yl)-amine], 207 µM corresponded to half-maximal inhibition (IC50).

What is called IC50 is the concentration that gives 50% inhibition.
